Reference: patent US20240307393A1, “PHARMACEUTICAL COMPOSITION FOR CANCER PREVENTION OR TREATMENT, COMPRISING CDK4/6 INHIBITOR AND TRICYCLIC ANTIDEPRESSANT” (priority 2021, published 2024)

Columns and labels:
[1] = test system: lung cancer cell line H460; experiment: WST-1 cancer cell killing (cell survival) test in lung cancer cell line H460; assay type: cell-based; settings: 48 hours; for Cell survival rate (%) Combined treatment with abemaciclib: antidepressant at Table 1 concentration combined with 4 μM abemaciclib; for Cell survival rate (%) Combined treatment with palbociclib: antidepressant at Table 1 concentration combined with 15 μM palbociclib; for Cell survival rate (%) Combined treatment with ribociclib: antidepressant at Table 1 concentration combined with 50 μM ribociclib; for Cell survival rate (%) Treatment with antidepressants alone: imipramine 100, clomipramine 40, desipramine 50, amitriptyline 45, imipramine blue 0.5 μM (Table 1)
Experimental: (§2) This experiment was conducted on the lung cancer cell line H460, the colorectal cancer cell line HCT116, and the breast cancer cell line MCF7. […] The cell lines H460 and MCF7 were cultured using RPMI1640 medium containing 10% FBS and 1% penicillin-streptomycin, and the cell line HCT116 was cultured using McCoy's 5A medium containing 10% FBS and 1% penicillin-streptomycin.
(§3) The cell lines H460, HCT116 and MCF7 were cultured at 3×10^3 cells/well in a 96 well plate. The next day, each drug was prepared at the concentrations shown in Tables 1 and 2, mixed with the medium, and then added to each well and left for 48 hours. After 48 hours, 10 ul/well of WST-1 reagent was added thereto and reacted for 1 hour. Samples reacted with WST-1 were analyzed by ELISA at 450 nM, and the same conditions were repeated three times to calculate the average value and standard error.

[2] = test system: colorectal cancer cell line HCT116; experiment: WST-1 cancer cell killing (cell survival) test in colorectal cancer cell line HCT116; assay type: cell-based, human; settings: 48 hours; for Cell survival rate (%) Combined treatment with abemaciclib: antidepressant at Table 1 concentration combined with 0.2 μM abemaciclib; for Cell survival rate (%) Combined treatment with palbociclib: antidepressant at Table 1 concentration combined with 5 μM palbociclib; for Cell survival rate (%) Combined treatment with ribociclib: antidepressant at Table 1 concentration combined with 20 μM ribociclib; for Cell survival rate (%) Treatment with antidepressants alone: imipramine 100, clomipramine 40, desipramine 20, amitriptyline 25, imipramine blue 0.4 μM (Table 1)
Experimental: as §2, §3

[3] = test system: breast cancer cell line MCF7; experiment: WST-1 cancer cell killing (cell survival) test in breast cancer cell line MCF7; assay type: cell-based; settings: 48 hours; for Cell survival rate (%) Combined treatment with abemaciclib: antidepressant at Table 1 concentration combined with 10 μM abemaciclib; for Cell survival rate (%) Combined treatment with palbociclib: antidepressant at Table 1 concentration combined with 20 μM palbociclib; for Cell survival rate (%) Combined treatment with ribociclib: antidepressant at Table 1 concentration combined with 30 μM ribociclib; for Cell survival rate (%) Treatment with antidepressants alone: imipramine 50, clomipramine 20, desipramine 50, amitriptyline 50, imipramine blue 0.1 μM (Table 1)
Experimental: This experiment was conducted on the lung cancer cell line H460, the colorectal cancer cell line HCT116, and the breast cancer cell line MCF7. As for the genetic characteristics of each cell line, the lung cancer cell line H460 has a KRAS mutation [p.Q61H], the colorectal cancer cell line HCT116 has a KRAS mutation [p.G13D], and the breast cancer cell line MCF7 has the characteristic of being positive for estrogen receptor and progesterone receptor but negative for HER2. The cell lines H460 and MCF7 were cultured using RPMI1640 medium containing 10% FBS and 1% penicillin-streptomycin, and the cell line HCT116 was cultured using McCoy's 5A medium containing 10% FBS and 1% penicillin-streptomycin.
Specifically, abemaciclib, ribociclib and palbociclib were used as CDK4/6 inhibitors, and DMSO was used as a solvent to prepare the drug stock. […] Each drug was used after diluting to the concentrations shown in Table 1 (antidepressant concentration used (μM)) and Table 2 (CDK4/6 inhibitor concentration used (μM)) below.
The cell lines H460, HCT116 and MCF7 were cultured at 3×10^3 cells/well in a 96 well plate. The next day, each drug was prepared at the concentrations shown in Tables 1 and 2, mixed with the medium, and then added to each well and left for 48 hours. After 48 hours, 10 ul/well of WST-1 reagent was added thereto and reacted for 1 hour. Samples reacted with WST-1 were analyzed by ELISA at […], and the same conditions were repeated three times to calculate the average value and standard error.

[4] = test system: colorectal cancer cell line HCT116 subcutaneous tumor; experiment: Tumor growth inhibition in HCT116 subcutaneous tumor model; assay type: in vivo, nude mice (Balb/c nude); set-up: reference not given here; settings: HCT116 subcutaneous tumor in nude mice, desipramine 20 mg/kg intraperitoneally, abemaciclib 30 mg/kg orally, once a day
Experimental: To evaluate the anti-tumor effect, the tumor size was measured every day until day 14 after treatment, and the differences between each group were analyzed. The tumor size was calculated as follows: V (mm^3)=1/2×long axis (mm)×short axis (mm)×height (mm). By day 14, the tumor size was measured, a tumor growth graph was created, and the tumor size between each group was compared and analyzed.

[5] = Toxicity evaluation: hematoxylin and eosin histology of major normal organs; assay type: in vivo, nude mice (Balb/c nude); settings: day 14; hematoxylin and eosin staining; desipramine 20 mg/kg intraperitoneally, abemaciclib 30 mg/kg orally, once a day
Experimental: (§1) Specifically, the human colorectal cancer cell line HCT116 was purchased from the American Type Culture Collection (ATCC, USA) and cultured in McCoy's 5A medium containing 10% fetal bovine serum (FBS) and penicillin-streptomycin under conditions of 37° C., 5% carbon dioxide and standard humidity.

[6] = Toxicity evaluation: body weight for 14 days; assay type: in vivo, nude mice (Balb/c nude); settings: measured for 14 days; desipramine 20 mg/kg intraperitoneally, abemaciclib 30 mg/kg orally, once a day
Experimental: as §1

| SMILES | Cell survival rate (%) Combined treatment with abemaciclib [1] [%] | Cell survival rate (%) Combined treatment with palbociclib [1] [%] | Cell survival rate (%) Combined treatment with ribociclib [1] [%] | Cell survival rate (%) Combined treatment with abemaciclib [2] [%] | Cell survival rate (%) Combined treatment with palbociclib [2] [%] | Cell survival rate (%) Combined treatment with ribociclib [2] [%] | Cell survival rate (%) Combined treatment with abemaciclib [3] [%] | Cell survival rate (%) Combined treatment with palbociclib [3] [%] | Cell survival rate (%) Combined treatment with ribociclib [3] [%] | Cell survival rate (%) Treatment with antidepressants alone [1] [%] | Cell survival rate (%) Treatment with antidepressants alone [2] [%] | Cell survival rate (%) Treatment with antidepressants alone [3] [%] | further results |
| --- | --- | --- | --- | --- | --- | --- | --- | --- | --- | --- | --- | --- | --- |
| CN(C)CCCN1c2ccccc2CCc2ccccc21 [Imipramine] | 20 | 53 | 47 | 58 | 41 | 39 | 34 | 53 | 55 |  |  |  |  |
| CN(C)C(=O)c1cc2cnc(Nc3ccc(N4CCNCC4)cn3)nc2n1C1CCCC1 [ribociclib] |  |  |  |  |  |  |  |  |  |  |  |  | lung cancer cell survival rate, ribociclib alone ([1]; 50 μM ribociclib alone, WST-1): 72%; colorectal cancer cell survival rate, ribociclib alone ([2]; 20 μM ribociclib alone, WST-1): 73%; breast cancer cell survival rate, ribociclib alone ([3]; 30 μM ribociclib alone, WST-1): 80% |
| CN(C)CCCN1c2ccccc2CCc2ccc(Cl)cc21 [Clomipramine] | 20 | 33 | 34 | 32 | 34 | 23 | 37 | 43 | 56 | 65 | 65 | 81 |  |
| CN(C)CCC=C1c2ccccc2CCc2ccccc21 [Amitriptyline] | 50 | 58 | 32 | 64 | 54 | 46 | 21 | 45 | 28 | 65 | 86 | 63 |  |
| CC(=O)c1c(C)c2cnc(Nc3ccc(N4CCNCC4)cn3)nc2n(C2CCCC2)c1=O [palbociclib] |  |  |  |  |  |  |  |  |  |  |  |  | lung cancer cell survival rate, palbociclib alone ([1]; 15 μM palbociclib alone, WST-1): 67%; colorectal cancer cell survival rate, palbociclib alone (HCT116 section) ([2]; 5 μM palbociclib alone, WST-1): 79%; breast cancer cell survival rate, palbociclib alone ([3]; 20 μM palbociclib alone, WST-1): 75% |
| CCN1CCN(Cc2ccc(Nc3ncc(F)c(-c4cc(F)c5nc(C)n(C(C)C)c5c4)n3)nc2)CC1 [abemaciclib] |  |  |  |  |  |  |  |  |  |  |  |  | lung cancer cell survival rate, abemaciclib alone ([1]; 4 μM abemaciclib alone, WST-1): 71%; colorectal cancer cell survival rate, abemaciclib alone ([2]; 0.2 μM abemaciclib alone, WST-1): 87%; breast cancer cell survival rate, abemaciclib alone ([3]; 10 μM abemaciclib alone, WST-1): 59%; tumor size on day 14 [4]: 54.6%; histological changes of major organs (heart, lung, liver, spleen, kidney) compared to the control group [5]: no histological changes; body weight difference between groups [6]: no significant difference in body weight |
| CNCCCN1c2ccccc2CCc2ccccc21 [Desipramine] | 24 | 14 | 16 | 28 | 44 | 29 |  |  |  | 40 | 71 | 60 | tumor size on day 14 [4]: 75.2%; histological changes of major organs (heart, lung, liver, spleen, kidney) compared to the control group [5]: no histological changes; body weight difference between groups [6]: no significant difference in body weight |
| CCN(CC)c1ccc(C(c2ccc(N(CC)CC)cc2)=c2ccc3c(c2)CCc2ccccc2[N+]=3CCCN(C)C)cc1 [Imipramine blue] | 50 | 36 | 36 | 39 | 43 | 31 | 43 | 59 | 60 | 62 | 53 | 88 |  |
